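How tested: cells in 96-well plates exposed to compound for 48 hours at five concentrations. GI50 = concentration required for 50% inhibition of growth. TGI marks complete inhibition of growth.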
Legend:
Assay in all cases: DTP human tumour cell line panel, 48 h; in the data active = GI50 below about 0.43 µM; inactive = the rest
786-0 renal = system: 786-0 renal
A498 renal = system: A498 renal
A549 NSCLC = system: A549 NSCLC
ACHN renal = system: ACHN renal
BT-549 breast = system: BT-549 breast
CAKI-1 renal = system: CAKI-1 renal
CCRF-CEM leukemia = system: CCRF-CEM leukemia
COLO 205 colon = system: COLO 205 colon
DU-145 prostate = system: DU-145 prostate
EKVX NSCLC = system: EKVX NSCLC
HCC-2998 colon = system: HCC-2998 colon
HCT-116 colon = system: HCT-116 colon
HCT-15 colon = system: HCT-15 colon
HL-60(TB) leukemia = system: HL-60(TB) leukemia
HOP-62 NSCLC = system: HOP-62 NSCLC
HOP-92 NSCLC = system: HOP-92 NSCLC
HS 578T breast = system: HS 578T breast
HT29 colon = system: HT29 colon
IGROV1 ovarian = system: IGROV1 ovarian
KM12 colon = system: KM12 colon
LOX IMVI melanoma = system: LOX IMVI melanoma
M14 melanoma = system: M14 melanoma
MCF7 breast = system: MCF7 breast
MDA-MB-231 breast = system: MDA-MB-231 breast
MDA-MB-435 = system: MDA-MB-435
MOLT-4 leukemia = system: MOLT-4 leukemia
NCI-H226 lung = system: NCI-H226 lung
NCI-H23 lung = system: NCI-H23 lung
NCI-H460 lung = system: NCI-H460 lung
NCI-H522 lung = system: NCI-H522 lung
NCI/ADR-RES ovarian = system: NCI/ADR-RES ovarian
OVCAR-3 ovarian = system: OVCAR-3 ovarian
OVCAR-4 ovarian = system: OVCAR-4 ovarian
OVCAR-5 ovarian = system: OVCAR-5 ovarian
OVCAR-8 ovarian = system: OVCAR-8 ovarian
PC-3 prostate = system: PC-3 prostate
RPMI-8226 leukemia = system: RPMI-8226 leukemia
RXF 393 renal = system: RXF 393 renal
SF-268 CNS = system: SF-268 CNS
SF-295 CNS = system: SF-295 CNS
SF-539 CNS = system: SF-539 CNS
SK-MEL-2 melanoma = system: SK-MEL-2 melanoma
SK-MEL-28 melanoma = system: SK-MEL-28 melanoma
SK-MEL-5 melanoma = system: SK-MEL-5 melanoma
SK-OV-3 ovarian = system: SK-OV-3 ovarian
SN12C renal = system: SN12C renal
SNB-19 CNS = system: SNB-19 CNS
SR leukemia = system: SR leukemia
SW-620 colon = system: SW-620 colon
T-47D breast = system: T-47D breast
TK-10 renal = system: TK-10 renal
U251 CNS = system: U251 CNS
UACC-62 melanoma = system: UACC-62 melanoma
UO-31 renal = system: UO-31 renal

COc1ccc(C2NC(=O)c3cc4c(cc3N2)OCO4)cc1 (configuration not stated)
1850 nM: TGI (HL-60(TB) leukemia)
6090 nM: TGI (NCI-H226 lung)
50500 nM: TGI (SK-MEL-5 melanoma)
> 100000 nM: TGI (786-0 renal) | TGI (A549 NSCLC) | TGI (ACHN renal) | TGI (BT-549 breast) | TGI (CAKI-1 renal) | TGI (CCRF-CEM leukemia) | TGI (DU-145 prostate) | TGI (EKVX NSCLC) | TGI (HCT-116 colon) | TGI (HCT-15 colon) | TGI (HOP-62 NSCLC) | TGI (HOP-92 NSCLC) | TGI (HS 578T breast) | TGI (HT29 colon) | TGI (IGROV1 ovarian) | TGI (KM12 colon) | TGI (LOX IMVI melanoma) | TGI (M14 melanoma) | TGI (MCF7 breast) | TGI (MDA-MB-231 breast) | TGI (MOLT-4 leukemia) | TGI (NCI-H23 lung) | TGI (NCI-H460 lung) | TGI (OVCAR-4 ovarian) | TGI (OVCAR-5 ovarian) | TGI (OVCAR-8 ovarian) | TGI (PC-3 prostate) | TGI (RPMI-8226 leukemia) | TGI (SF-268 CNS) | TGI (SF-295 CNS) | TGI (SK-MEL-2 melanoma) | TGI (SK-MEL-28 melanoma) | TGI (SN12C renal) | TGI (SNB-19 CNS) | TGI (SR leukemia) | TGI (SW-620 colon) | TGI (T-47D breast) | TGI (TK-10 renal) | TGI (U251 CNS) | TGI (UACC-62 melanoma) | TGI (UO-31 renal)
3560 nM: TGI (COLO 205 colon)
543 nM: TGI (MDA-MB-435)
7140 nM: TGI (HCC-2998 colon)
2950 nM: TGI (A498 renal)
6580 nM: TGI (NCI-H522 lung)
1610 nM: TGI (RXF 393 renal)
3520 nM: TGI (OVCAR-3 ovarian)
7360 nM: TGI (SK-OV-3 ovarian)
9900 nM: TGI (SF-539 CNS)
active: GI50 (A498 renal) 164 nM | GI50 (COLO 205 colon) 408 nM | GI50 (HL-60(TB) leukemia) 345 nM | GI50 (MCF7 breast) 339 nM | GI50 (MDA-MB-435) 215 nM | GI50 (NCI-H226 lung) 389 nM | GI50 (NCI-H460 lung) 341 nM | GI50 (RXF 393 renal) 287 nM | GI50 (SK-MEL-5 melanoma) 297 nM | GI50 (SR leukemia) 415 nM
3860 nM: TGI (NCI/ADR-RES ovarian)
inactive: GI50 (786-0 renal) 2380 nM | GI50 (A549 NSCLC) 678 nM | GI50 (ACHN renal) 4100 nM | GI50 (BT-549 breast) 16500 nM | GI50 (CAKI-1 renal) 466 nM | GI50 (CCRF-CEM leukemia) 868 nM | GI50 (DU-145 prostate) 807 nM | GI50 (EKVX NSCLC) 2420 nM | GI50 (HCC-2998 colon) 1070 nM | GI50 (HCT-116 colon) 511 nM | GI50 (HCT-15 colon) 504 nM | GI50 (HOP-62 NSCLC) 1020 nM | GI50 (HOP-92 NSCLC) 11400 nM | GI50 (HS 578T breast) 1420 nM | GI50 (HT29 colon) 856 nM | GI50 (IGROV1 ovarian) 4920 nM | GI50 (KM12 colon) 557 nM | GI50 (LOX IMVI melanoma) 821 nM | GI50 (M14 melanoma) 927 nM | GI50 (MDA-MB-231 breast) 3030 nM | GI50 (MOLT-4 leukemia) 2540 nM | GI50 (NCI-H23 lung) 1250 nM | GI50 (NCI-H522 lung) 1870 nM | GI50 (NCI/ADR-RES ovarian) 508 nM | GI50 (OVCAR-3 ovarian) 791 nM | GI50 (OVCAR-4 ovarian) 5520 nM | GI50 (OVCAR-5 ovarian) 1510 nM | GI50 (OVCAR-8 ovarian) 1630 nM | GI50 (PC-3 prostate) 2810 nM | GI50 (SF-268 CNS) 2000 nM | GI50 (SF-295 CNS) 704 nM | GI50 (SF-539 CNS) 1010 nM | GI50 (SK-MEL-2 melanoma) 2840 nM | GI50 (SK-MEL-28 melanoma) 719 nM | GI50 (SK-OV-3 ovarian) 499 nM | GI50 (SN12C renal) 481 nM | GI50 (SNB-19 CNS) 966 nM | GI50 (SW-620 colon) 432 nM | GI50 (T-47D breast) 683 nM | GI50 (TK-10 renal) 19300 nM | GI50 (U251 CNS) 849 nM | GI50 (UACC-62 melanoma) 571 nM | GI50 (UO-31 renal) 13500 nM

Reference: PubChem BioAssay (NCI)
